{"source": "patent US7652031B2", "about": "“Compounds which mimic the chemical and biological properties of discodermolide” (priority 2001, dated 2010)", "key": {"[1]": {"system": "microtubule protein (MTP)", "test": "In vitro tubulin polymerization assay (turbidity at 350 nm)", "assay_type": "biochemical, calf", "details": "for induction of tubulin assembly in the absence of GTP / extent of polymerization after 100 min / initial slope (0-5 min), slope for (+)-discodermolide assigned 1.0: 10 μM; for induction of tubulin assembly in the absence of GTP: 37° C.; for extent of polymerization after 100 min: turbidity; for initial slope (0-5 min), slope for (+)-discodermolide assigned 1.0: first 5 min, relative to (+)-discodermolide; for stability of the microtubules formed against calcium-induced depolymerization: microtubules formed in the presence of the compound", "method": "(§1) All drugs were dissolved in sterile DMSO and stored at −20° C. Microtubule protein (MTP) was purified by 2 cycles of temperature-dependent assembly-disassembly from calf brain and stored in liquid nitrogen. See, for example, Welsenberg, R. C., “Microtubule formation in vitro in solutions containing low calcium concentrations”, Science, 1972, 177, 1104-1105.\nMicrotubule polymerization was evaluated by recording the change in turbidity of MTP at 350 nm for 100 min in a spectrophotometer (UVIKON, Research Instruments Int., San Diego, Calif.). See, for example, Shelanski, M. L., et al., “Microtuble assembly in the absence of added nucleotides”, Proc. Natl. Acad. Sci. USA, 1973, 70, 765-768. Purified MTP was diluted in assembly buffer containing 0.1 M MES, I mM EGTA, 0.5 mM MgCl2, and 3 M glycerol (pH 6.6) to a final concentration of 1 mg/ml. All compounds were evaluated at a concentration of 10 μM at 37° C. in the absence of GTP. The changes in absorption that occurred during the first 5 min were used to plot initial slopes from the linear portion of each curve in order to compare the initial activity of each compound.\nThe activities of Taxol, (+)-discodermolide, and several structural analogs were determined in the foregoing in vitro tubulin polymerization assay that measures changes in absorbance that correlate with the extent of microtubule polymerization. It will be appreciated that microtubule polymerization involves both nucleation (initiation) and elongation steps. The initial rates of polymerization reflect the nucleation process. See, for example, Gaskin, F., et al. “Turbidimetric studies of the in vitro assembly and disassembly of porcine neurotubules”, J. Mol. Biol., 1974, 89, 737-758."}, "[2]": {"system": "microtubule protein (MTP)", "test": "Electron microscopy of microtubules from the in vitro polymerization assay", "assay_type": "biochemical, calf", "details": "for Average Polymer Length (μm): microtubule lengths after assembly, minimum of 50 microtubules", "method": "Aliquots (50 μL) were taken from the in vitro polymerization assay at the end of the reaction and placed onto 300-mesh carbon-coated, Formavar-treated copper grids. Samples were then stained with 20 μL of 2% uranyl acetate and viewed with a JEOL model 100CX electron microscope. To determine the lengths of the microtubules, electron micrograph negatives were scanned and then analyzed using IP Lab software. Measurements were performed on negatives at ×10000 and ×50000, with a minimum of 50 microtubules measured for each compound.\nThe microtubule protein from each in vitro assay was examined by electron microscopy to confirm that normal microtubules were formed in the presence of the compounds. In all cases, except for the DMSO control, microtubules were observed. […] Table 1 provides a comparison of microtubule lengths after assembly with Taxol, discodermolide and analogs I-i, I-ii, I-iii, and I-iv."}, "microtubules": {"system": "microtubules", "test": "Drug binding competition assay ([3H]Taxol binding to preformed microtubules)", "design": "species or system calf", "method": "as §1\nThe assay was performed using methods described in Bollag, D. M., et al., “Epothilones, a new class of microtubule-stabilizing agents with a Taxol-like mechanism of action”, Cancer-Res., 1995, 55, 2325-2333 and He, L., et al., “A common pharmacophore for Taxol and the epothilones based on the biological activity of a taxane molecule lacking a C-13 side chain”, Biochemistry, 2000, 39, 3972-3978. MTP (0.4 mg/ml) was incubated at 37° C. with 1 mM GTP and […] Taxol for 20 min to induce the assembly of microtubules. One hundred nanomolar [^3H]Taxol (specific activity: 19.3 Ci/mmol) and the indicated concentration of the competing agent were added simultaneously to the preformed microtubules. The mixtures were further incubated at 37° C. for 30 min to allow binding of [^3H]Taxol. Microtubules were collected by ultracentrifugation (100,000 g, 1 hr, 30° C.) and the radioactivity measured using a liquid scintillation counter. The inhibition of binding of [^3H]Taxol to microtubules was expressed as a percentage compared to the control (100%)."}, "A549 cells [3]": {"system": "A549 cells", "test": "Immunofluorescence (microtubules, DNA), A549 cells", "assay_type": "cell-based, human", "method": "In addition, cells were stained with Hoescht solution (Sigma; 1:2.5 dilution) for 15 min after the secondary antibody wash. Slides were analyzed using a Zeiss Axiophot microscope (rhodamine and DAPI filters) at ×100 magnification."}, "A549 cells [4]": {"system": "A549 cells", "test": "Cytotoxicity assay, A549 cells", "assay_type": "cell-based, human", "method": "The A549 lung carcinoma cell line was maintained as described in Kavallaris, M., et al., “Taxol-resistant epithelial ovarian tumors are associated with altered expression of specific β-tubulin isotypes”, J. Clin. Invest., 1997, 100, 1282-1293.\n(§2) A549 cells were seeded in triplicate at a density of 1×10^4 cells/ml in 6-well plates and allowed to attach for 24 h. After incubation with various drug concentrations for 72 h, adherent cells were trypsinized and counted (Coulter Counter model Z1; Coulter Corp., Miami, Fla.), and the IC50 was determined. SKOV3 cells were seeded at a density of 2×10^4 cells/ml and the above procedure followed."}, "SKOV3 cells": {"system": "SKOV3 cells", "test": "Cytotoxicity assay, SKOV3 cells", "assay_type": "cell-based, human", "method": "The SKOV3 ovarian carcinoma cell line was obtained from Dr. V. Ling and was maintained as described in McDaid, H. M., et al., “Structure-activity profiles of eleutherobin analogs and their cross-resistance in Taxol-resistant cell lines”, Cancer Chemother. Pharmacol., 1999, 44, 131-137.\nas §2"}, "A549 cells [5]": {"system": "A549 cells", "test": "Flow cytometry (cell cycle), A549 cells", "assay_type": "cell-based, human", "details": "24 h"}, "murine splenocytes [6]": {"system": "murine splenocytes", "details": "in vitro; cited from earlier work"}, "murine splenocytes [7]": {"system": "murine splenocytes", "details": "in vitro, cited from earlier work"}, "F1 recipient mice": {"system": "F1 recipient mice", "details": "cited from earlier work"}, "tubulin [8]": {"system": "tubulin", "details": "cited from earlier work"}, "tubulin [9]": {"system": "tubulin", "details": "cited from earlier work", "remark": "listed apart in the source"}, "MCF-7 cells": {"system": "MCF-7 cells", "details": "cited from earlier work"}, "[10]": {"system": "human carcinoma cell lines", "details": "in cells; cited from earlier work"}, "[11]": {"details": "(+)-discodermolide 25 nM, analogs at different cytotoxic concentrations"}}, "note": "Read-outs that look alike come from different tables or passages of the source.", "data": [{"smiles": "CC(=O)O[C@H]1C(=O)[C@@]2(C)[C@H]([C@H](OC(=O)c3ccccc3)[C@]3(O)C[C@H](OC(=O)[C@H](O)[C@@H](NC(=O)c4ccccc4)c4ccccc4)C(C)=C1C3(C)C)[C@]1(OC(C)=O)CO[C@@H]1C[C@@H]2O", "note": "[Taxol]", "values": [{"measurement": "induction of tubulin assembly in the absence of GTP", "setting": "[1]", "result": "induced tubutin assembly in the absence of GTP"}, {"measurement": "extent of polymerization after 100 min", "setting": "[1]", "result": "essentially the same"}, {"measurement": "initial slope (0-5 min), slope for (+)-discodermolide assigned 1.0", "setting": "[1]", "result": 0.28}, {"measurement": "stability of the microtubules formed against calcium-induced depolymerization", "setting": "[1]", "result": "stable against calcium-induced depolymerzation"}, {"measurement": "Average Polymer Length (μm)", "setting": "[2]", "result": "3.3 ± 1.2", "unit": "μm"}, {"measurement": "inhibition of binding of [3H]Taxol to microtubules", "setting": "microtubules; 1 μM competing agent", "result": "very similar inhibition"}, {"measurement": "inhibition of binding of [3H]Taxol to microtubules", "setting": "microtubules; 10 μM competing agent", "result": "approximately 45%"}, {"measurement": "inhibition of binding of [3H]Taxol to microtubules", "setting": "microtubules; 100 μM competing agent", "result": 80, "unit": "%"}, {"measurement": "location of microtubule bundles in the cells", "setting": "A549 cells [3]", "result": "throughout the cells"}]}, {"smiles": "C=C/C=C\\[C@H](C)[C@H](OC(N)=O)[C@@H](C)[C@H](O)[C@@H](C)C/C(C)=C\\[C@H](C)[C@@H](O)[C@@H](C)/C=C\\[C@@H](O)C[C@@H]1OC(=O)[C@H](C)[C@@H](O)[C@H]1C", "note": "(single isomer, unassigned) [(+)-discodermolide]", "values": [{"measurement": "induction of tubulin assembly in the absence of GTP", "setting": "[1]", "result": "induced tubutin assembly in the absence of GTP"}, {"measurement": "extent of polymerization after 100 min", "setting": "[1]", "result": "essentially the same"}, {"measurement": "initial slope (0-5 min), slope for (+)-discodermolide assigned 1.0", "setting": "[1]", "result": 1.0}, {"measurement": "level of polymerization by protein content in the supernatant", "setting": "[1]; end of assay, 100,000 g for 30 min", "result": "comparable"}, {"measurement": "stability of the microtubules formed against calcium-induced depolymerization", "setting": "[1]", "result": "stable against calcium-induced depolymerzation"}, {"measurement": "microtubule length compared with GTP or Taxol", "setting": "[2]; electron microscopy", "result": "much shorter microtubules"}, {"measurement": "Average Polymer Length (μm)", "setting": "[2]", "result": "0.78 ± 0.3", "unit": "μm"}, {"measurement": "inhibition of binding of [3H]Taxol to microtubules", "setting": "microtubules; 1 μM competing agent", "result": "very similar inhibition"}, {"measurement": "inhibition of binding of [3H]Taxol to microtubules", "setting": "microtubules; 10 μM competing agent", "result": "approximately 45%"}, {"measurement": "inhibition of binding of [3H]Taxol to microtubules", "setting": "microtubules; 100 μM competing agent", "result": "~95", "unit": "%"}, {"measurement": "inhibition of the proliferation of A549 cells", "setting": "A549 cells [4]", "result": "inhibited the proliferation of A549 cells"}, {"measurement": "IC50", "setting": "A549 cells [4]; Homo sapiens, A549, 72 h, read-out: A549 (IC50(μm))", "result": 3.8, "unit": "nM"}, {"measurement": "IC50", "setting": "SKOV3 cells; Homo sapiens, SK-OV-3, 72 h, read-out: SKOV3 (IC50(μm))", "result": "31.3 ± 6.8", "unit": "nM"}, {"measurement": "less active in SKOV3 compared to A549 cells", "setting": "SKOV3 cells; SKOV3 vs A549", "result": "approximately 8 fold"}, {"measurement": "hypodiploid population of cells (apoptosis)", "setting": "A549 cells [5]; 25 nM", "result": "increase in the hypodiploid population of cells"}, {"measurement": "cell cycle block in G2/M phase", "setting": "A549 cells [5]; [11]", "result": "blocked in the G2/M phase of the cell cycle"}, {"measurement": "location of microtubule bundles in the cells", "setting": "A549 cells [3]", "result": "at the periphery of the cells"}, {"measurement": "microtubule bundles and condensed nuclear DNA", "setting": "A549 cells [3]; [11]", "result": "Microtubule bundles and condensed nuclear DNA appeared"}, {"measurement": "concentrations at which bundles and condensed DNA were not seen", "setting": "A549 cells [3]; effect seen at 25 nM and above", "result": "below 12 nM"}, {"measurement": "suppression of the two-way mixed-lymphocyte reaction", "setting": "murine splenocytes [6]", "result": "suppresses"}, {"measurement": "suppression of concanavalin A-induced mitogenesis", "setting": "murine splenocytes [7]", "result": "suppresses"}, {"measurement": "cytotoxicity associated with the suppression", "setting": "murine splenocytes [7]; mixed-lymphocyte reaction and mitogenesis assays", "result": "no associated cytotoxicity"}, {"measurement": "potency in graft-vs.-host splenomegaly response", "setting": "F1 recipient mice; compared with cyclosporin A and FK506", "result": "intermediate between those of cyclosporin A and FK506"}, {"measurement": "suppression of graft-vs.-host splenomegaly response", "setting": "F1 recipient mice; injection of parental splenocytes into F1 recipient mice", "result": "suppresses"}, {"measurement": "binding affinity compared with Taxol", "setting": "tubulin [8]; listed as 1", "result": "much higher"}, {"measurement": "binding affinity compared with Taxol", "setting": "tubulin [8]; listed as (+)-discoderrnolide", "result": "higher affinity for tubulin"}, {"measurement": "potency at nucleating tubulin assembly compared to Taxol", "setting": "tubulin [9]", "result": "more potent"}, {"measurement": "potency at inducing microtubule bundles compared to Taxol", "setting": "MCF-7 cells", "result": "more potent"}, {"measurement": "cytotoxicity compared with Taxol", "setting": "[10]", "result": "less cytotoxic than Taxol"}]}]}
